As usually defined, the IC50 is the midpoint of a concentration-inhibition curve.

One test concerns SSAO. In words: SSAO Target Engagement: residual SSAO activity in rat plasma and liver after dosing. Type of test: in vivo. Particulars: for SSAO Activity (%) Liver 24 hours / SSAO Activity (%) Plasma 2 hours / SSAO Activity (%) Plasma 24 hours: mean ± SEM, n = 6. The protocol:
The SSAO activity in rat plasma and liver tissues are measured using the MAO-Glo™ assay kit from Promega (V1402). The residual SSAO activity in rats after compound treatment is estimated by measuring the total amine oxidase activity in plasma or liver lysates that are insensitive to the presence of the MAO inhibitor Clogyline and Pargyline. Rats are administered the compound of Example 1 at the doses of 15, 3, 0.6, 0.12, 0.025, 0.005 mg/kg. The control group is administered with the same volume (2 ml/kg) of the dosing vehicle (hydroxyethyl cellulose 1% w/v, 0.25% Tween 80). Plasma and liver at 2 or 24 hrs post compound treatment are harvested and stored at −78° C. until analysis. Tissue lysates are prepared by homogenization in a lysis buffer (20 mM HEPES, pH 7.4, 150 mM NaCl, 1 mM EDTA, 1 mM EGTA, 1% Triton X-100 and 1× Roche Complete protease inhibitor tablet). Tissue particles are removed by centrifugation at 12,000 rpm at 4° C. for 30 min. 40 μl of plasma or liver lysates is incubated with Clogyline (10 μM) and Pargyline (10 μM) for 20 min. at room temperature before the addition of the luminogenic substrate (50 μM) for 60 min. The product generated is quantified according to the manufacture's procedure. The fraction of activity that is insensitive to the presence of the MAO inhibitors is used as the surrogate for the residual SSAO activity. The compound of Example 1 is evaluated in the protocol essentially as described above administered at various doses.

In the next test the target is T1, recombinant hSSAO (Homo sapiens, UniProt Q16853).
T1 sequence (Q16853 1-763): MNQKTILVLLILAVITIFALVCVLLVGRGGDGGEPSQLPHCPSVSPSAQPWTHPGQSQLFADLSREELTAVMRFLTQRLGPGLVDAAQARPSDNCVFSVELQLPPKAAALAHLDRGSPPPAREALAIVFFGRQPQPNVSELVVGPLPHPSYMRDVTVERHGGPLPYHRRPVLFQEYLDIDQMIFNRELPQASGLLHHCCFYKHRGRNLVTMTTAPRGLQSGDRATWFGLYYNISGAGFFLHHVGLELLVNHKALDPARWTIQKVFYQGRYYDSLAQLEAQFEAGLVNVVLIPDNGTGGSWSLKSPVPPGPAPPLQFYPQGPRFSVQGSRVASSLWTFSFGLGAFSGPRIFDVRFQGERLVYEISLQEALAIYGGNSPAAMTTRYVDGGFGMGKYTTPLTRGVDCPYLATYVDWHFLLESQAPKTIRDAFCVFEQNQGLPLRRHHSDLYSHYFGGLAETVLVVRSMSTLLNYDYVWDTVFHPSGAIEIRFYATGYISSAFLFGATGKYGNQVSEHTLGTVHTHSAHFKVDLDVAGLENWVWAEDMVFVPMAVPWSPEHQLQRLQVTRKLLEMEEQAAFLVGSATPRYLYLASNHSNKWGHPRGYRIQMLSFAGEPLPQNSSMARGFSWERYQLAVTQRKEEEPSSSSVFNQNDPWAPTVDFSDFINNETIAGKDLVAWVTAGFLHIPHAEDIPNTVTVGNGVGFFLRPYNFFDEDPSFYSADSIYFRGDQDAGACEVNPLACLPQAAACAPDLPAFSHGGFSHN
In words: SSAO/VAP-1 in vitro amine oxidase activity, MAO-Glo assay. Type of test: biochemical. Particulars: mean±standard deviation, n=5; substrate 10 μM, pH 7.4; read-out: hSSAO inhibition IC50. The protocol:
Amine oxidase activity of recombinant hSSAO, hMAOa, and hMAOb isoforms are measured using the MAO-Glo™ assay kit from Promega (V1402). Test compounds (with DMSO as vehicle, 0.5% v/v for SSAO) and the enzyme are incubated for 10 mins at room temperature before the addition of the luminogenic substrate. The substrate concentration is 10 μM for human recombinant SSAO. The assays are conducted in a pH 7.4 buffer (50 mM HEPES, 120 mM NaCl, 5 mM KCl, 2 mM CaCl2, 1.4 mM MgCl2, 0.001% Tween-20) in a well-plate. Oxidation of the substrate is conducted for 2 hrs before the addition of detecting reagent according the manufacture's protocol. The IC50 value of the tested compounds is calculated by fitting the dose response curve using a 4-parameter non-linear regression routine.

Structures are written as SMILES.

Turning to `CN1CCC2(CCN(c3ncc(OC/C(=C/F)CN)cn3)CC2)C1=O.Cl.Cl` [Example 1, 8-[5-[(E)-2-(Aminomethyl)-3-fluoro-allyloxy]pyrimidin-2-yl]-2-methyl-2,8-diazaspiro[4.5]decan-1-one Dihydrochloride], the “SSAO Activity (%) Liver 24 hours” value is recorded as 79 ± 13% with SSAO (dose 0.005 mg/kg); 59 ± 14% in the test on SSAO (dose 0.025 mg/kg); 28 ± 5% in the test on SSAO (dose 0.12 mg/kg); 24 ± 6% in the test on SSAO (dose 0.6 mg/kg); 6 ± 4% in the test with SSAO (dose 3 mg/kg); −0.63 ± 1.1% in the test on SSAO (dose 15 mg/kg). Also, the “SSAO Activity (%) Plasma 2 hours” value was 76 ± 3% in the test with SSAO (dose 0.005 mg/kg); 35 ± 4% with SSAO (dose 0.025 mg/kg); 17 ± 1% in the test with SSAO (dose 0.12 mg/kg); 13.4 ± 2.4% with SSAO (dose 0.6 mg/kg); 5.9 ± 1.6% in the test with SSAO (dose 3 mg/kg); 3.1 ± 0.9% in the test on SSAO (dose 15 mg/kg). In addition, the “SSAO Activity (%) Plasma 24 hours” value in the test on SSAO (dose 0.005 mg/kg) turned out to be 81 ± 4%; in the test with SSAO (dose 0.025 mg/kg) it was 67 ± 10%; in the test on SSAO (dose 0.12 mg/kg), 39 ± 4%; in the test on SSAO (dose 0.6 mg/kg) it was 31 ± 3%; in the test with SSAO (dose 3 mg/kg), 19 ± 2%; with SSAO (dose 15 mg/kg) it was 14 ± 1%. The “inhibition of SSAO activity in rat plasma and liver tissue (in words)” value in the test with SSAO (doses 0.005 to 15 mg/kg) is on record as “dose-dependently inhibits SSAO activity”. On recombinant hSSAO, the half-inhibitory concentration (IC50) is 19.4 ± 5.68 nM.

(Values after US10471060B2, “Amino pyrimidine compounds useful as SSAO inhibitors” (Eli Lilly and Company, priority 2017, dated 2019).)
